Where two headings read alike, the source gives them in different places.
Tests used:
[1] = system: K. oxytoca; design: key: previously determined antibiotic resistance (shown with “X”); conditions: cited from earlier work
[2] = system: P. aeruginosa; design: key: previously determined antibiotic resistance (shown with “X”); conditions: cited from earlier work
[3] = system: E. coli; design: key: previously determined antibiotic resistance (shown with “X”); conditions: cited from earlier work
[4] = system: P. mirabilis; design: key: previously determined antibiotic resistance (shown with “X”); conditions: cited from earlier work
[5] = system: K. pneumoniae; design: key: previously determined antibiotic resistance (shown with “X”); conditions: cited from earlier work
[6] = system: E. coli BAA-2469; design: unit not given beside the values
From the text: Comparison Method: Results for the novel assay method described here were compared to broth microdilutions (BMD) performed according the […] 2018.

[7] = system: E. coli BAA-2469; design: unit not given beside the values; conditions: E. coli BAA-2469, regardless of the amount of S. aureus ATCC 25923 cells
[8] = system: K. pneumonaie strain in clinical urine sample BIUR0084; assay: automated MultiPath AST cartridge on clinical urine, Example 8; assay type: cell-based, K. pneumoniae; conditions: for sensitive/resistant call by MulitPath: clinical urine BIUR0084, 4 h growth, fold growth value of 2; for growth call at all antibiotic concentrations (MulitPath assay): clinical urine BIUR0084, fold growth value of 2, 4 h

Row | Molecule | previously determined antibiotic resistance ([1]; K. oxytoca CDC0028) | previously determined antibiotic resistance ([1]; K. oxytoca CDC0071) | previously determined antibiotic resistance ([1]; K. oxytoca CDC0147) | previously determined antibiotic resistance ([2]; P. aeruginosa CDC0105) | previously determined antibiotic resistance ([2]; P. aeruginosa CDC0111) | previously determined antibiotic resistance ([2]; P. aeruginosa CDC0242) | previously determined antibiotic resistance ([3]; E. coli ATCC25922) | previously determined antibiotic resistance ([3]; E. coli CDC0020) | previously determined antibiotic resistance ([4]; P. mirabilis ATCC7002) | previously determined antibiotic resistance ([4]; P. mirabilis CDC0029) | previously determined antibiotic resistance ([4]; P. mirabilis CDC0059) | previously determined antibiotic resistance ([4]; P. mirabilis CDC0155) | previously determined antibiotic resistance ([4]; P. mirabilis CDC0156) | previously determined antibiotic resistance ([4]; P. mirabilis CDC0159) | previously determined antibiotic resistance ([5]; K. pneumoniae ATCC13883) | previously determined antibiotic resistance ([5]; K. pneumoniae CDC0010) | previously determined antibiotic resistance ([5]; K. pneumoniae CDC0016) | previously determined antibiotic resistance ([5]; K. pneumoniae CDC0034) | previously determined antibiotic resistance ([5]; K. pneumoniae CDC0076) | previously determined antibiotic resistance ([5]; K. pneumoniae CDC0126) | other results
1 | C[C@@H](O)[C@H]1C(=O)N2C(C(=O)O)=C(S[C@@H]3CN[C@H](C(=O)N(C)C)C3)[C@H](C)[C@H]12 [Meropenem] | X | X | X | X | X | X | X | X | X | X | X | X | X | X | X | X | X | X | X | – | previously determined antibiotic resistance ([2]; P. aeruginosa CDC0232): X; previously determined antibiotic resistance ([2]; P. aeruginosa CDC0247): X; previously determined antibiotic resistance ([3]; E. coli CDC0001): X; previously determined antibiotic resistance ([3]; E. coli CDC0006): X; previously determined antibiotic resistance ([3]; E. coli CDC0085): X; previously determined antibiotic resistance ([3]; E. coli CDC0114): X; previously determined antibiotic resistance ([5]; K. pneumoniae CDC0043): X; previously determined antibiotic resistance ([5]; K. pneumoniae CDC0080): X
2 | O=C(O)c1cn(C2CC2)c2cc(N3CCNCC3)c(F)cc2c1=O [Ciprofloxacin] | X | X | X | – | – | – | X | – | X | X | X | X | X | X | X | – | X | X | X | X | previously determined antibiotic resistance ([2]; P. aeruginosa ATCC27853): X; previously determined antibiotic resistance ([2]; P. aeruginosa CDC0251): X; previously determined antibiotic resistance ([2]; P. aeruginosa CDC0253): X; previously determined antibiotic resistance ([2]; P. aeruginosa CDC0259): X; previously determined antibiotic resistance ([2]; P. aeruginosa CDC0261): X; previously determined antibiotic resistance ([2]; P. aeruginosa CDC0262): X; previously determined antibiotic resistance ([3]; E. coli BAA-2452): X; previously determined antibiotic resistance ([3]; E. coli BAA-2469): X; previously determined antibiotic resistance ([3]; E. coli BAA-2471): X; previously determined antibiotic resistance ([3]; E. coli CDC0017): X; previously determined antibiotic resistance ([3]; E. coli CDC0019): X; previously determined antibiotic resistance ([5]; K. pneumoniae CDC0117): X
3 | CC(C)(O/N=C(\C(=O)N[C@@H]1C(=O)N2C(C(=O)[O-])=C(C[n+]3ccccc3)CS[C@H]12)c1csc(N)n1)C(=O)O [Ceftazidime] | X | X | X | X | X | X | X | X | X | X | X | X | X | X | X | X | X | – | – | X | previously determined antibiotic resistance ([2]; P. aeruginosa ATCC27853): X; previously determined antibiotic resistance ([2]; P. aeruginosa CDC0251): X; previously determined antibiotic resistance ([2]; P. aeruginosa CDC0253): X; previously determined antibiotic resistance ([3]; E. coli CDC0067): X; previously determined antibiotic resistance ([3]; E. coli CDC0084): X; previously determined antibiotic resistance ([3]; E. coli CDC0086): X; previously determined antibiotic resistance ([3]; E. coli CDC0350): X; previously determined antibiotic resistance ([5]; K. pneumoniae CDC0041): X; previously determined antibiotic resistance ([5]; K. pneumoniae CDC0107): X; previously determined antibiotic resistance ([5]; K. pneumoniae CDC0160): X
4 | O=C1CN(/N=C/c2ccc([N+](=O)[O-])o2)C(=O)N1 [Nitrofurantoin] | – | – | – | – | – | – | – | – | – | – | – | – | – | – | – | – | – | – | – | – | MIC, CLSI-like broth microdilution ([6]; E. coli BAA-2469, in the absence of S. aureus): 8; MIC, CLSI-like broth microdilution ([6]; E. coli BAA-2469, with a 100-fold excess of S. aureus ATCC 25923): 32; MIC, novel 4-hour AST assay (MultiPath) [7]: 8
5 | Cc1nnc(SCC2=C(C(=O)O)N3C(=O)[C@@H](NC(=O)Cn4cnnn4)[C@H]3SC2)s1 [Cefazolin] | – | – | – | – | – | – | – | – | – | – | – | – | – | – | – | – | – | – | – | – | sensitive/resistant call by MulitPath [8]: resistant; growth call at all antibiotic concentrations (MulitPath assay) [8]: growth
6 | Trimethoprim/Sulfamethoxazole | X | X | X | – | – | – | X | – | X | X | X | X | X | X | X | X | X | – | – | X | sensitive/resistant call by MulitPath [8]: resistant; growth call at all antibiotic concentrations (MulitPath assay) [8]: growth; previously determined antibiotic resistance ([3]; E. coli BAA-2469): X; previously determined antibiotic resistance ([3]; E. coli BAA-2471): X; previously determined antibiotic resistance ([3]; E. coli CDC0017): X; previously determined antibiotic resistance ([3]; E. coli CDC0019): X; previously determined antibiotic resistance ([3]; E. coli CDC0084): X; previously determined antibiotic resistance ([5]; K. pneumoniae CDC0107): X; previously determined antibiotic resistance ([5]; K. pneumoniae CDC0117): X
